Like-named read-outs stand apart in the source and are kept apart here.
Columns and labels:
[1] = target: BRD4 BD1 (Homo sapiens (Human), UniProt O60885); assay: NanoBRET bromodomain assay, NanoLuc-BRD4-BD1 fusion in HEK293 cells; format: cell-based; conditions: top concentration 10 μM
Method: HEK293 cells were transfected using NanoLuc-BRD4-BD1 or NanoLuc-BRD4-BD2 fusion vectors and incubated at 37° C. in an atmosphere of 5% CO2 for 20-24 hours. The transfected cells were then dispensed into 96-well plates using 90 μl cell suspension per well containing 2×10^5 cells/mL in Opti-MEM and 1× final concentration of tracer. 90 μL per well of cell suspension without tracer was also dispensed into at least 3 wells as “No tracer control samples” for background correction. Serially diluted test compounds were prepared at 1000× concentration in DMSO and further diluted to 10× concentration in Opti-MEM. […] Plates were then incubated at 37° C. +5% 002 incubator for 2 hours. […] Donor emission (450 nm) and acceptor emission (610 nm) were measured using PHERAstar (BMG LabTech). For data analysis, the raw BRET ratio was generated and converted to milliBRET units with background correction using the formula: [(Acceptorsample/Donorsample−(Acceptorno tracer control/Donorno tracer control)]×1000. The mBU data was plotted as a function of compound concentration and IC50s for BRET assay were determined by nonlinear regression analysis of concentration response curves using the Collaborative Drug Discovery Vault software. The fold-selectivity was calculated by dividing the IC50 for BRD4 BD1 by the IC50 for BRD4 BD2.

[2] = Intrinsic clearance in liver microsomes, mouse; format: in vitro ADME; conditions: pH 7.4, Method 2, read-out: Half-Life (T1/2) (min), Mouse
Method: From stock solution of compound on 10 mM DMSO, a working solution of 0.1 mM is prepared by diluting the compound in DMSO. 6.25 μL of a 20 mg/mL solution of microsomes in PBS pH 7.4 buffer is added to 216.25 μL PBS pH 7.4 buffer (final microsome concentration—0.5 mg/mL). 25 μL of 10 mM solution of NADPH in PBS pH 7.4 buffer is added to the incubations (final NADPH concentration—1 mM). The mixture is pre-warmed to 37° C. for 10 minutes. 2.5 μL of test compound working solution is added (final compound concentration—1 μM with 1% DMSO). Aliquots of 30 μL are taken from the reaction solution at 0.5, 5, 15, 30 and 60 minutes. The reaction was stopped by the addition of 5 volumes of cold acetonitrile with IS (100 nM alprazolam, 200 nM caffeine and 100 nM tolbutamide). Samples were centrifuged at 3, 220 g for 40 minutes. Aliquots of 100 μL of the supernatant are mixed with 100 μL of ultra-pure H2O and used for LC-MS/MS analysis. The percent compound remaining at each time point is calculated with respect to that of the 0.5 min sample. The data are analysed to calculate half-life. Control experiments are run without NADPH and blank samples are prepared using DMSO without the test compound.
A 50 mM stock solution (in DMSO) is prepared for the compound. From the stock solution, a working solution of 0.5 mM is prepared by diluting the compound in DMSO. This concentration of working solution is prepared considering a final concentration of 1 uM with 0.1% DMSO. The compound (1 μL of working solution) is spiked in PBS with pH 7.4 ([…]) at a concentration of 1 μM. Subsequently, 110 μL of 10 mM NADPH is added (as a co-factor). The sample is incubated at 37° C. for 15 min. Following this, pre-warmed liver microsomes (27.5 μL; final protein conc. 0.5 mg/mL) are added. The samples are then incubated at 37° C. Aliquots of samples are withdrawn at 0, 5, 15, 30, 45 and 60 min. The reaction is stopped by using chilled acetonitrile containing internal standard. The samples are centrifuged, and the supernatants analysed by LC-MS/MS. The percent compound remaining at each time point is calculated with respect to that of the 0 min sample. The data are then analysed to calculate half-life and intrinsic clearance (CLint). Control experiments are run without NADPH and blank samples are prepared using DMSO without the test compound.

[3] = target: BRD4 BD2 (Homo sapiens (Human), UniProt O60885); assay: NanoBRET bromodomain assay, NanoLuc-BRD4-BD2 fusion in HEK293 cells; conditions: for Fold selectivity: IC50 for BRD4 BD1 divided by IC50 for BRD4 BD2, qualitative if an IC50 is at the upper limit; for IC50: BRD4 BD2 (IC50), NanoBRET, HEK293 cells, top concentration 10 μM;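 for all read-outs here: tracer displacement BRET read in transfected cells after 2 h compound exposure at 37 °C, signal in milliBRET units corrected against no-tracer background wells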
[4] = test system: IL-17A; assay: IL-17A levels by ELISA in stimulated human peripheral blood mononuclear cells; format: cell-based; conditions: for IC50: Homo sapiens, PBMC; for IC50 for IL-17A relative to GSK620 / Biomarker selectivity (IL-17 vs. CXCL10): human PBMC; for IC50 for IL-17A relative to GSK620: 72 hours; for Biomarker selectivity (IL-17 vs. CXCL10): from mean IC50
Method: (§1) CD2, CD3, and CD28 antibody-coated beads from the T-cell activation/expansion kit (Miltenyi Biotec) were added to the PBMC at a bead-to-cell ratio of 1:2.
(§2) The mixture of PBMCs and beads were seeded into the wells of the round-bottom 96-well plate at a concentration of 2×10^5 cells/well in a total volume of 200 μL. The cells were cultured for 72 hours at 37° C. and 5% CO2 and then supernatants were collected and IL-17A and IL-22 levels were measured by ELISA. […] The final compound concentration ranged from 30,000 nM to 0.005 nM and the final DMSO concentration per well was 0.3%. PBMCs were seeded at approximately 2×10^5 cells/well in the wells of the 96-well tissue culture plate in a total volume of 190 μL. The plate was incubated for 1 hour at 37° C. and 5% CO2. […] The cells were then cultured for 24 hours at 37° C. and 5% CO2. The supernatant was collected and CXCL10 levels were measured by ELISA.

[5] = test system: CXCL10; assay: CXCL10 levels by ELISA in IFN-γ stimulated human peripheral blood mononuclear cells; format: cell-based; conditions: human PBMC
Method: The impact of Examples 23, 80, and 101 on IL-17A, IL-22, and CXCL10 levels was analyzed in cryopreserved human peripheral blood mononuclear cells (PBMC) by ELISA. […] For IL-17A and IL-22 assays, Examples 23, 80, and 101 were serially diluted from 10 mM in DMSO and further diluted in assay media to 100× the required final concentration, of which, 2 μL was added per well to a round-bottom 96-well tissue culture plate where the final DMSO concentration per well was 0.1%. CD2, CD3, and CD28 antibody-coated beads from the T-cell activation/expansion kit (Miltenyi Biotec) were added to the PBMC at a bead-to-cell ratio of 1:2.
The mixture of PBMCs and beads were seeded into the wells of the round-bottom 96-well plate at a concentration of 2×10^5 cells/well in a total volume of 200 μL. The cells were cultured for 72 hours at 37° C. and 5% CO2 and then supernatants were collected and IL-17A and IL-22 levels were measured by ELISA. For the CXCL10 assay, Examples 23, 80, and 101 were serially diluted from 10 mM in DMSO and further diluted in assay media to 100× the required final concentration, of which 2 μL was added per well to a 96-well tissue culture plate. The final compound concentration ranged from 30,000 nM to 0.005 nM and the final DMSO concentration per well was 0.3%. PBMCs were seeded at approximately 2×10^5 cells/well in the wells of the 96-well tissue culture plate in a total volume of 190 μL. The plate was incubated for 1 hour at 37° C. and 5% CO2. The cells were then stimulated with IFN-γ (15 ng/mL final concentration) in a volume of 10 μL. The cells were then cultured for 24 hours at 37° C. and 5% CO2. The supernatant was collected and CXCL10 levels were measured by ELISA.

[6] = test system: IL-22; assay: IL-22 levels by ELISA in stimulated human peripheral blood mononuclear cells; format: cell-based; conditions: for IC50: Homo sapiens, PBMC; for IC50 for IL-22 relative to GSK620 / Biomarker selectivity (IL-22 vs. CXCL10): human PBMC; for IC50 for IL-22 relative to GSK620: 72 hours; for Biomarker selectivity (IL-22 vs. CXCL10): from mean IC50
Method: as §1, §2

[7] = Test Subject 1, read-out: IL-17A IC50
[8] = Test Subject 3, read-out: IL-17A IC50
[9] = mean of test subjects, read-out: IL-17A IC50 Mean
[10] = Test Subject 2, read-out: CXCL10 IC50
[11] = Test Subject 3, read-out: CXCL10 IC50
[12] = mean of test subjects, read-out: CXCL10 IC50 Mean
[13] = Test Subject 2, read-out: IL-22 IC50
[14] = Test Subject 3, read-out: IL-22 IC50
[15] = mean of test subjects, read-out: IL-22 IC50 Mean

SMILES	IC50 [1]	half-life at 1 μM [2]	Fold selectivity [3]	IC50 [3]	other results
CNC(=O)c1[nH]c(C(=O)N[C@@H]2CC[C@@H](O)C2)cc1O[C@@H](C)c1ccccc1 (racemic) [Example 116, N^5-(trans-3-hydroxycyclopentyl)-N^2-methyl-3-((S)-1-phenylethoxy)-1H-pyrrole-2,5-dicarboxamide]	≥ 10000 nM	> 60 min	XX (Fold >50 and ≤200)		
CNC(=O)c1[nH]c(-c2cnn(C(C)C)c2)cc1O[C@@H](C)c1ccccc1 [Example 80, (S)-5-(1-isopropyl-1H-pyrazol-4-yl)-N-methyl-3-(1-phenylethoxy)-1H-pyrrole-2-carboxamide]	≥ 10000 nM		XXX (Fold >200)	< 50 nM	IC50 [4, 7]: 25.1 nM; IC50 [4, 8]: 187 nM; IC50 [4, 9]: 106 nM; IC50 for IL-17A relative to GSK620 [4]: increased mean IC50; Biomarker selectivity (IL-17 vs. CXCL10) [4]: >283 Fold; selectivity to induction of CXCL10 relative to IL-17A and IL-22 [5]: showed selectivity to induction of CXCL10 relative to IL-17A and IL-22; IC50 ([5]; Test Subject 1, read-out: CXCL10 IC50): > 30000 nM; IC50 [5, 10]: > 30000 nM; IC50 [5, 11]: > 30000 nM; IC50 [5, 12]: > 30000 nM; IC50 [6, 13]: 9.3 nM; IC50 [6, 14]: 30.7 nM; IC50 [6, 15]: 20 nM; IC50 for IL-22 relative to GSK620 [6]: decreased mean IC50; Biomarker selectivity (IL-22 vs. CXCL10) [6]: >1500 Fold
CNC(=O)c1[nH]c(C(=O)NC(C)C)cc1O[C@@H](C)c1ccccc1 [Example 105, (S)—N^5-isopropyl-N^2-methyl-3-(1-phenylethoxy)-1H-pyrrole-2,5-dicarboxamide]	≥ 10000 nM	> 60 min	X (Fold >2 and ≤50)	200 to 1000 nM	
CNC(=O)c1[nH]c(C(=O)NC2CC2)cc1O[C@@H](C)c1ccccc1 [Example 106, (S)—N^5-cyclopropyl-N^2-methyl-3-(1-phenylethoxy)-1H-pyrrole-2,5-dicarboxamide]	≥ 10000 nM	> 60 min	XX (Fold >50 and ≤200)	50 to 200 nM	
CNC(=O)c1[nH]c(C(=O)N[C@H]2C[C@H](O)C2)cc1O[C@@H](C)c1ccccc1 [Example 108, N^5-(trans-3-hydroxycyclobutyl)-N^2-methyl-3-((S)-1-phenylethoxy)-1H-pyrrole-2,5-dicarboxamide]	≥ 10000 nM	> 60 min	XX (Fold >50 and ≤200)	50 to 200 nM	
CNC(=O)c1[nH]c(C(=O)N[C@H]2CCC(F)(F)C2)cc1O[C@@H](C)c1ccccc1 [Example 110, N^5-((S)-3,3-difluorocyclopentyl)-N^2-methyl-3-((S)-1-phenylethoxy)-1H-pyrrole-2,5-dicarboxamide]	≥ 10000 nM	> 60 min	X (Fold >2 and ≤50)	200 to 1000 nM	
CNC(=O)c1[nH]c(C(=O)N[C@@H]2CCC(F)(F)C2)cc1O[C@@H](C)c1ccccc1 [Example 111, N^5-((R)-3,3-difluorocyclopentyl)-N^2-methyl-3-((S)-1-phenylethoxy)-1H-pyrrole-2,5-dicarboxamide]	≥ 10000 nM	> 60 min	X (Fold >2 and ≤50)	200 to 1000 nM	
CNC(=O)c1[nH]c(C(=O)NCCC(F)(F)F)cc1O[C@@H](C)c1ccccc1 [Example 112, (S)—N^2-methyl-3-(1-phenylethoxy)-N^5-(3,3,3-trifluoropropyl)-1H-pyrrole-2,5-dicarboxamide]	≥ 10000 nM	> 60 min	X (Fold >2 and ≤50)	200 to 1000 nM	

Second part, led by results:

IC50 [1]	half-life at 1 μM [2]	Fold selectivity [3]	IC50 [3]	SMILES	other results
≥ 10000 nM		XXX (Fold >200)	< 50 nM	CNC(=O)c1[nH]c(-c2ncc(C)[nH]2)cc1O[C@@H](C)c1ccccc1 [Example 23, (S)-N-methyl-5-(5-methyl-1H-imidazol-2-yl)-3-(1-phenylethoxy)-1H-pyrrole-2-carboxamide]	IC50 [4, 7]: 104 nM; IC50 ([4]; Test Subject 2, read-out: IL-17A IC50): 9.6 nM; IC50 [4, 8]: 53.4 nM; IC50 [4, 9]: 24.5 nM; IC50 for IL-17A relative to GSK620 [4]: decreased mean IC50; Biomarker selectivity (IL-17 vs. CXCL10) [4]: >1226 Fold; selectivity to induction of CXCL10 relative to IL-17A and IL-22 [5]: showed selectivity to induction of CXCL10 relative to IL-17A and IL-22; IC50 [5, 10]: > 30000 nM; IC50 [5, 11]: > 30000 nM; IC50 [5, 12]: > 30000 nM; IC50 ([6]; Test Subject 1, read-out: IL-22 IC50): 8.5 nM; IC50 [6, 13]: 1.2 nM; IC50 [6, 14]: 4.3 nM; IC50 [6, 15]: 4.7 nM; IC50 for IL-22 relative to GSK620 [6]: decreased mean IC50; Biomarker selectivity (IL-22 vs. CXCL10) [6]: >6429 Fold; BRD4 BD2 % Activity Remaining @ 10 uM ([3]; 10 uM, (2) = second batch): 22%
≥ 10000 nM	> 60 min	XX (Fold >50 and ≤200)	50 to 200 nM	CNC(=O)c1[nH]c(C(=O)NC2COC2)cc1O[C@@H](C)c1ccccc1 [Example 107, (S)—N^2-methyl-N^5-(oxetan-3-yl)-3-(1-phenylethoxy)-1H-pyrrole-2,5-dicarboxamide]	
≥ 10000 nM	> 60 min	X (Fold >2 and ≤50)	200 to 1000 nM	CNC(=O)c1[nH]c(C(=O)NC2CC(F)(F)C2)cc1O[C@@H](C)c1ccccc1 [Example 109, (S)—N^5-(3,3-difluorocyclobutyl)-N^2-methyl-3-(1-phenylethoxy)-1H-pyrrole-2,5-dicarboxamide]	

From US20250263370A1 (Tay Therapeutics Limited, priority 2022, published 2025)
